Measurements taken from PMC7413254 (Nature Communications, 2020).
Like-named read-outs stand apart in the source and are kept apart here. Where no end group is shown, it is not given here.

Assays:
Format in all cases: cell-based
PfCRT^Dd2 [1] = target: T1, PfCRT^Dd2 (Plasmodium falciparum, UniProt Q9N623, A220S/I356T/K76T/M74I/N326S/N75E/Q271E/R371I); assay: [3H]CQ uptake into Xenopus oocytes, cis-inhibition by unlabelled solute; conditions: read-out: PfCRT-mediated [3H]CQ transport, cis-inhibition (% PfCRTDd2 control)
In short: (§1)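 Radioactivity accumulated per oocyte, read by liquid scintillation after 10% SDS lysis, served as the uptake measure. Incubations ran 1.5 h at 27.5 °C in ND96 at pH 5.5, matching digestive-vacuole acidity.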

PfCRT^Ecu1110 [2] = target: T2, PfCRT^Ecu1110 (Plasmodium falciparum, UniProt Q9N623, A220S/I356L/K76T/N326D); assay: as above
In short: as §1

PfCRT^3D7 = PfCRT^3D7 (Plasmodium falciparum, UniProt Q8IBZ9); assay: cell-based; conditions: for [3H]CQ transport, PfCRT3D7 (% PfCRTDd2 control): 45 mM VF-6 injected, 96 mM Na+ injection buffer; for activity at 2000 µM: read-out: [3H]CQ transport, PfCRT3D7, trans-stimulation, solute 2 mM; for [3H]CQ transport, PfCRT3D7 (% PfCRT3D7 control): solute 45 mM injected (estimated intracellular)
In short: (§2)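 Transport measured in Xenopus oocytes expressing the transporters, 1.5 h at 27.5 °C in ND96 pH 5.5 unless noted. For trans-stimulation, VF-6 injected in 25 nL ND96 at pH 5.0–7.0 or Na^+-free (choline) buffer; intracellular levels based on ~400 nL oocyte volume. Ten oocytes per treatment, ≥4 experiments.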

PfCRT^Dd2 [3] = target: T1, PfCRT^Dd2; assay: cell-based; conditions: […]; for activity at 2000 µM: pH 5.5, read-out: [3H]CQ transport, PfCRTDd2, trans-stimulation, solute 2 mM
In short: as §2

PfCRT^Ecu1110 [4] = target: T2, PfCRT^Ecu1110; assay: cell-based; conditions: […]; for activity at 45000 µM: read-out: [3H]CQ transport, PfCRTEcu1110 (% PfCRTDd2 control), 45 mM VF-6 injected, 0 mM Na+ injection buffer; for activity at 2000 µM: read-out: [3H]CQ transport, PfCRTEcu1110, trans-stimulation, solute 2 mM
In short: as §2

PfNT1 = target: T3, PfNT1 (Plasmodium falciparum, UniProt Q8IDM6); assay: cell-based; conditions: for activity at 2000 µM: read-out: [3H]CQ transport, PfNT1, trans-stimulation, solute 2 mM
T3 construct: expressed in transfected cells; host or cells: Xenopus laevis oocytes (stage V-VI), cRNA-injected
In short: as §2

[5] = read-out: PfCRT-mediated [3H]CQ transport, cis-inhibition (% PfCRTEcu1110 control)
[6] = read-out: [3H]CQ transport (% PfCRTEcu1110 control), cis-inhibition, PfCRTEcu1110, SEM

Chain of PfCRT^3D7 (Q8IBZ9 59-398): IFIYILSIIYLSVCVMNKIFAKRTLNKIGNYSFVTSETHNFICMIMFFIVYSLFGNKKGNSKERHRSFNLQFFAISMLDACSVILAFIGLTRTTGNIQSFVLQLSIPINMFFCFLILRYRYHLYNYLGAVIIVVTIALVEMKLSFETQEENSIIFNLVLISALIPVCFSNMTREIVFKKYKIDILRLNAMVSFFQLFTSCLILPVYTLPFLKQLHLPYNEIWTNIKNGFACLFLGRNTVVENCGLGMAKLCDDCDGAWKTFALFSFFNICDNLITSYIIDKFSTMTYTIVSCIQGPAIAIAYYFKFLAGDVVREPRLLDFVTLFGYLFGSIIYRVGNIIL
T2 sequence (Q9N623 whole entry A220S/I356L/K76T/N326D): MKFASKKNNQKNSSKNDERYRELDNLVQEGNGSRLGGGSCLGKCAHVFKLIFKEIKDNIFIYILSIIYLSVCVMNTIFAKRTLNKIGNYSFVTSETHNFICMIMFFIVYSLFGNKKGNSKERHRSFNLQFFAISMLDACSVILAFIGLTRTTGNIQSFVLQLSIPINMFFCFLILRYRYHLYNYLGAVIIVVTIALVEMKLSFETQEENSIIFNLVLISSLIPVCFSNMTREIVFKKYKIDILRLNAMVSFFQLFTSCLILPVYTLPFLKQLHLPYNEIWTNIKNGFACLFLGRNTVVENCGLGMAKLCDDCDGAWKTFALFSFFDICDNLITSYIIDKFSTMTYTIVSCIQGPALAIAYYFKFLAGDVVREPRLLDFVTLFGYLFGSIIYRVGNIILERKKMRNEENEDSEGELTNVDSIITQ
T3 sequence (Q8IDM6 whole entry): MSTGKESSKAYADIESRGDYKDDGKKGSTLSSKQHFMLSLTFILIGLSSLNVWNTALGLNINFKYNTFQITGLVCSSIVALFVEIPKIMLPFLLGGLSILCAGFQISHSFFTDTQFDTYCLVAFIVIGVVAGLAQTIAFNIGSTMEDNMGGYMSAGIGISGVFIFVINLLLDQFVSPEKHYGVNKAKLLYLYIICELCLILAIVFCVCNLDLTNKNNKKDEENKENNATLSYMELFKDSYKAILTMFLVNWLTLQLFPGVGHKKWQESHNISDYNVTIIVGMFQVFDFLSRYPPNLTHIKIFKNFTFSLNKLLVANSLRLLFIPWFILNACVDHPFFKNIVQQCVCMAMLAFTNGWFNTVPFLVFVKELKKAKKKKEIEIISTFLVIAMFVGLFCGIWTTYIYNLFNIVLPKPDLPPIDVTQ
T1 sequence (Q9N623 whole entry A220S/I356T/K76T/M74I/N326S/N75E/Q271E/R371I): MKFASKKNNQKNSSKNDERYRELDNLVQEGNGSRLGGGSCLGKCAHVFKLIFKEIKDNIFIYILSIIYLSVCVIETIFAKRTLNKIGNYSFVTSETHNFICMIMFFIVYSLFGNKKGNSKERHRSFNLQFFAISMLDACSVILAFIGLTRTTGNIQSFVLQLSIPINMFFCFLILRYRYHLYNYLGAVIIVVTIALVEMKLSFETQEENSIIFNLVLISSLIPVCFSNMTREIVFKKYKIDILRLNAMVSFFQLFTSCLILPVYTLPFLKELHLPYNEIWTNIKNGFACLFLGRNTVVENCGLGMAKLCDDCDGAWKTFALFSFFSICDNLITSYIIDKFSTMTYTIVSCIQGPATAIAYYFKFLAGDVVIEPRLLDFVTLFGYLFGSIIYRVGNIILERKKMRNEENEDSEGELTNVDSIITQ

VDPVNF [VF-6]
inhibition at 500 µM (PfCRT^Dd2 [1]): 30 ± 1.1% | inhibition at 1000 µM (PfCRT^Dd2 [1]): 21 ± 0.8% | inhibition at 2000 µM (PfCRT^Dd2 [1]): 8.1 ± 0.2% | inhibition at 500 µM (PfCRT^Ecu1110 [2]; [5]): 50 ± 2.4% | inhibition at 1000 µM (PfCRT^Ecu1110 [2]; [5]): 39 ± 4.1% | inhibition at 2000 µM (PfCRT^Ecu1110 [2]; [5]): 26 ± 2.1% | inhibition at 500 µM (PfCRT^Ecu1110 [2]; [6]): 16 ± 0.3% | inhibition at 1000 µM (PfCRT^Ecu1110 [2]; [6]): 12 ± 0.2% | inhibition at 2000 µM (PfCRT^Ecu1110 [2]; [6]): 8 ± 0.04% | [3H]CQ transport, PfCRT3D7 (% PfCRTDd2 control) (PfCRT^3D7; Experiment 1): 22.53 % PfCRTDd2 control | [3H]CQ transport, PfCRT3D7 (% PfCRTDd2 control) (PfCRT^3D7; Experiment 2): 23.78 % PfCRTDd2 control | [3H]CQ transport, PfCRT3D7 (% PfCRTDd2 control) (PfCRT^3D7; Experiment 3): 24.68 % PfCRTDd2 control | [3H]CQ transport, PfCRT3D7 (% PfCRTDd2 control) (PfCRT^3D7; Experiment 4): 25.32 % PfCRTDd2 control | [3H]CQ transport, PfCRT3D7 (% PfCRTDd2 control) (PfCRT^3D7; Experiment 5): 26.32 % PfCRTDd2 control | activity at 5000 µM (PfCRT^3D7; […], read-out: PfCRT-mediated [3H]CQ transport, trans-stimulation (% PfCRT3D7 control), [test solute]i = 5 mM (intracellular), PfCRT3D7 oocytes, normalised to oocyte type control): 147 ± 5.2% | activity at 45000 µM (PfCRT^3D7; […], read-out: PfCRT-mediated [3H]CQ transport, trans-stimulation (% PfCRT3D7 control), [test solute]i = 45 mM (intracellular; 30 mM for some solutes due to solubility), PfCRT3D7 oocytes, normalised to oocyte type control): 195 ± 4.6% | activity at 45000 µM (PfCRT^3D7; […], read-out: [3H]CQ transport, PfCRT3D7 (% PfCRTDd2 control), 45 mM VF-6 injected, 0 mM Na+ injection buffer, Experiment 1): 25.3% | activity at 45000 µM (PfCRT^3D7; […], read-out: [3H]CQ transport, PfCRT3D7 (% PfCRTDd2 control), 45 mM VF-6 injected, 0 mM Na+ injection buffer, Experiment 2): 26.4% | activity at 45000 µM (PfCRT^3D7; […], read-out: [3H]CQ transport, PfCRT3D7 (% PfCRTDd2 control), 45 mM VF-6 injected, 0 mM Na+ injection buffer, Experiment 3): 25.3% | activity at 45000 µM (PfCRT^3D7; […], read-out: [3H]CQ transport, PfCRT3D7 (% PfCRTDd2 control), 45 mM VF-6 injected, 0 mM Na+ injection buffer, Experiment 4): 26.8% | activity at 45000 µM (PfCRT^3D7; […], read-out: [3H]CQ transport, PfCRT3D7 (% PfCRTDd2 control), 45 mM VF-6 injected, 0 mM Na+ injection buffer, Experiment 5): 27.3% | activity at 2000 µM (PfCRT^3D7; […], Experiment 1): 22.9% | activity at 2000 µM (PfCRT^3D7; […], Experiment 2): 19.1% | activity at 2000 µM (PfCRT^3D7; […], Experiment 3): 21.1% | activity at 2000 µM (PfCRT^3D7; […], Experiment 4): 21.8% | [3H]CQ transport, PfCRT3D7 (% PfCRT3D7 control) (PfCRT^3D7; trans-stimulation, Experiment 1): 187.43 % PfCRT3D7 control | [3H]CQ transport, PfCRT3D7 (% PfCRT3D7 control) (PfCRT^3D7; trans-stimulation, Experiment 2): 206.32 % PfCRT3D7 control | [3H]CQ transport, PfCRT3D7 (% PfCRT3D7 control) (PfCRT^3D7; trans-stimulation, Experiment 3): 201.32 % PfCRT3D7 control | [3H]CQ transport, PfCRT3D7 (% PfCRT3D7 control) (PfCRT^3D7; trans-stimulation, Experiment 4): 199.25 % PfCRT3D7 control | [3H]CQ transport (% PfCRT3D7 control), trans-stimulation, PfCRT3D7 (PfCRT^3D7; trans-stimulation, [test solute]i = 5 mM (injected), PfCRT-mediated component (background subtracted), sheet title says normalised to PfCRTDd2 control, mean ± SEM, SEM): 1.7 ± 0.02 % PfCRT3D7 control | activity at 5000 µM (PfCRT^Dd2 [3]; pH 5.5, read-out: PfCRT-mediated [3H]CQ transport, trans-stimulation (% PfCRTDd2 control), [test solute]i = 5 mM (intracellular), PfCRTDd2 oocytes, normalised to oocyte type control): 103 ± 3.1% | activity at 5000 µM (PfCRT^Dd2 [3]; pH 5.5, read-out: [3H]CQ transport (% PfCRTDd2 control), trans-stimulation, PfCRTDd2, trans-stimulation, [test solute]i = 5 mM (injected), PfCRT-mediated component (background subtracted), mean ± SEM, SEM): 103 ± 3.1% | activity at 45000 µM (PfCRT^Dd2 [3]; pH 5.5, read-out: [3H]CQ transport (% PfCRTDd2 control), trans-stimulation, PfCRTDd2, trans-stimulation, [test solute]i = 45 mM (30 mM for some solutes due to solubility), PfCRT-mediated component (background subtracted), mean ± SEM, SEM): 112 ± 2.1% | activity at 2000 µM (PfCRT^Dd2 [3]; Experiment 1): 120% | activity at 2000 µM (PfCRT^Dd2 [3]; Experiment 2): 119% | activity at 2000 µM (PfCRT^Dd2 [3]; Experiment 3): 120% | activity at 2000 µM (PfCRT^Dd2 [3]; Experiment 4): 112% | activity at 5000 µM (PfCRT^Ecu1110 [4]; pH 5.5, read-out: PfCRT-mediated [3H]CQ transport, trans-stimulation (% PfCRTEcu1110 control), [test solute]i = 5 mM (intracellular), PfCRTEcu1110 oocytes, normalised to oocyte type control): 126 ± 2.4% | activity at 45000 µM (PfCRT^Ecu1110 [4]; Experiment 1): 47.7% | activity at 45000 µM (PfCRT^Ecu1110 [4]; Experiment 2): 47.6% | activity at 45000 µM (PfCRT^Ecu1110 [4]; Experiment 3): 50.8% | activity at 45000 µM (PfCRT^Ecu1110 [4]; Experiment 4): 49.2% | activity at 45000 µM (PfCRT^Ecu1110 [4]; Experiment 5): 51.1% | activity at 2000 µM (PfCRT^Ecu1110 [4]; Experiment 1): 44.2% | activity at 2000 µM (PfCRT^Ecu1110 [4]; Experiment 2): 47.3% | activity at 2000 µM (PfCRT^Ecu1110 [4]; Experiment 3): 38.4% | activity at 2000 µM (PfCRT^Ecu1110 [4]; Experiment 4): 45.6% | [3H]CQ transport, PfNT1 (% PfCRTDd2 control) (PfNT1; 45 mM VF-6 injected, 0 mM Na+ injection buffer, Experiment 1): 3.36 % PfCRTDd2 control | [3H]CQ transport, PfNT1 (% PfCRTDd2 control) (PfNT1; 45 mM VF-6 injected, 0 mM Na+ injection buffer, Experiment 2): 3.47 % PfCRTDd2 control | [3H]CQ transport, PfNT1 (% PfCRTDd2 control) (PfNT1; 45 mM VF-6 injected, 0 mM Na+ injection buffer, Experiment 3): 3.88 % PfCRTDd2 control | [3H]CQ transport, PfNT1 (% PfCRTDd2 control) (PfNT1; 45 mM VF-6 injected, 0 mM Na+ injection buffer, Experiment 4): 3.57 % PfCRTDd2 control | [3H]CQ transport, PfNT1 (% PfCRTDd2 control) (PfNT1; 45 mM VF-6 injected, 0 mM Na+ injection buffer, Experiment 5): 3.69 % PfCRTDd2 control | [3H]CQ transport, PfNT1 (% PfCRTDd2 control) (PfNT1; 45 mM VF-6 injected, 96 mM Na+ injection buffer, Experiment 1): 3.72 % PfCRTDd2 control | [3H]CQ transport, PfNT1 (% PfCRTDd2 control) (PfNT1; 45 mM VF-6 injected, 96 mM Na+ injection buffer, Experiment 2): 3.21 % PfCRTDd2 control | [3H]CQ transport, PfNT1 (% PfCRTDd2 control) (PfNT1; 45 mM VF-6 injected, 96 mM Na+ injection buffer, Experiment 3): 3.67 % PfCRTDd2 control | [3H]CQ transport, PfNT1 (% PfCRTDd2 control) (PfNT1; 45 mM VF-6 injected, 96 mM Na+ injection buffer, Experiment 4): 3.45 % PfCRTDd2 control | [3H]CQ transport, PfNT1 (% PfCRTDd2 control) (PfNT1; 45 mM VF-6 injected, 96 mM Na+ injection buffer, Experiment 5): 3.27 % PfCRTDd2 control | activity at 2000 µM (PfNT1; Experiment 1): 2.65% | activity at 2000 µM (PfNT1; Experiment 2): 2.51% | activity at 2000 µM (PfNT1; Experiment 3): 2.61% | activity at 2000 µM (PfNT1; Experiment 4): 2.73% | [3H]CQ transport, PfNT1 (% PfCRTDd2 control) (PfNT1; trans-stimulation, solute 45 mM injected (estimated intracellular), Experiment 1): 2.65 % PfCRTDd2 control | [3H]CQ transport, PfNT1 (% PfCRTDd2 control) (PfNT1; trans-stimulation, solute 45 mM injected (estimated intracellular), Experiment 2): 2.51 % PfCRTDd2 control | [3H]CQ transport, PfNT1 (% PfCRTDd2 control) (PfNT1; trans-stimulation, solute 45 mM injected (estimated intracellular), Experiment 3): 2.61 % PfCRTDd2 control | [3H]CQ transport, PfNT1 (% PfCRTDd2 control) (PfNT1; trans-stimulation, solute 45 mM injected (estimated intracellular), Experiment 4): 2.73 % PfCRTDd2 control
